Assay results taken from patent US12180193B2, “Accelerating fibrosarcoma protein degrading compounds and associated methods of use” (Arvinas Operations, Inc., priority 2020, dated 2024).

How the values were obtained:
BRAF G466V = target: T1, BRAF G466V (Homo sapiens, UniProt P15056, G466V); experiment: Cellular assay of target protein degradation, T-Rex 293 cells stably transfected with HA-BRAF G466V (HA immunofluorescence, high content imaging); assay type: cell-based; conditions: T-Rex 293 HA-BRAF G466V; for DC50: half maximal degradation, read-out: BRaf G466V DC50; for Dmax: maximum degradation observed
T1 construct: expressed in transfected cells
T1 sequence (P15056 whole entry G466V): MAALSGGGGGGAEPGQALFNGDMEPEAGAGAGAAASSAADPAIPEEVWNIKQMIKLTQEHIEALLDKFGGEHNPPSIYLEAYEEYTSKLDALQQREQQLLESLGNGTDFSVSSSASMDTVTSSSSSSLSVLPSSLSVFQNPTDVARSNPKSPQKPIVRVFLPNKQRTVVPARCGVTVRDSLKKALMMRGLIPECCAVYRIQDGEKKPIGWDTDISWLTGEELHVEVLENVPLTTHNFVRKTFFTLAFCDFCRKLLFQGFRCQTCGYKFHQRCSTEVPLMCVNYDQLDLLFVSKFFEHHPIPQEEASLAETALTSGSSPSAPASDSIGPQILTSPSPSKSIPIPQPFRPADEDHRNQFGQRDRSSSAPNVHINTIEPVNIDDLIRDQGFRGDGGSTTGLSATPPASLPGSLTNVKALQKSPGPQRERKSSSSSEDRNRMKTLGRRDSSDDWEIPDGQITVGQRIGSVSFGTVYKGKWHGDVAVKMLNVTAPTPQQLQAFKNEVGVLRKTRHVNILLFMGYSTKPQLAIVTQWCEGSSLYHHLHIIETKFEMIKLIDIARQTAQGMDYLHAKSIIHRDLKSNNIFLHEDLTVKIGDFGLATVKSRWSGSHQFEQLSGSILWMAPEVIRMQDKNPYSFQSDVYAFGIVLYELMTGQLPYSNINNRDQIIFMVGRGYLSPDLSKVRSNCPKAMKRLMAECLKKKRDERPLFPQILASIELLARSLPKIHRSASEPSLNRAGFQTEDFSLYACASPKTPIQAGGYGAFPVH
In short: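 Doxycycline-induced (0.75 ng/mL) cells treated 24 h at 37 °C with compound from 30 nM to 3 pM (0.1% DMSO). After fixation and permeabilisation, HA-tagged BRAF G466V immunostained and quantified by high-content imaging. DC50 and Dmax (percent of control) derived.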

BRAF V600E = target: T2, BRAF V600E (Homo sapiens, UniProt P15056, V600E); experiment: Cellular assay of target protein degradation, T-Rex 293 cells stably transfected with HA-BRAF_V600E (HA immunofluorescence, high content imaging); assay type: cell-based; conditions: T-Rex 293 HA-BRAF V600E; for DC50: half maximal degradation, read-out: BRaf V600E DC50; for Dmax: maximum degradation observed
T2 construct: expressed in transfected cells
T2 sequence (P15056 whole entry V600E): as the sequence (P15056 whole entry G466V) above, with V466G, V600E counted along it
In short: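 Doxycycline-induced (1 ng/mL) T-Rex 293 cells expressing HA-BRAF V600E treated 24 h at 37 °C with compound at 1 μM to 0.1 nM final in 0.1% DMSO. Remaining HA-tagged protein quantified by fixed-cell anti-HA immunofluorescence and high-content imaging; DC50 and Dmax (% of control) derived.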

SMILES | DC50 (BRAF G466V) | DC50 (BRAF V600E) | Dmax (BRAF G466V) | Dmax (BRAF V600E)
O=C1CCC(N2Cc3cc(C4CCN(CCC5CN(c6ccc(-c7cnc8[nH]cc(C(=O)c9c(F)ccc(NS(=O)(=O)N%10CC[C@@H](F)C%10)c9F)c8c7)cc6)C5)CC4)ccc3C2=O)C(=O)N1 (stereo partly drawn) [Compound 218, (3R)-N-[3-(5-{4-[3-(2-{4-[2-(2,6-dioxopiperidin-3-yl)-1-oxo-2,3-dihydro-1H-isoindol-5-yl]piperidin-1-yl}ethyl)azetidin-1-yl]phenyl}-1H-pyrrolo[2,3-b]pyridine-3-carbonyl)-2,4-difluorophenyl]-3-fluoropyrrolidine-1-sulfonamide] | > 30 nM | > 500 nM | – | –
O=C1CCC(N2Cc3cc(C4CCN(C[C@H]5C[C@H]6CC[C@@H](C5)N6c5ccc(-c6cnc7[nH]cc(C(=O)c8c(F)ccc(NS(=O)(=O)N9CC[C@@H](F)C9)c8F)c7c6)cc5)CC4)ccc3C2=O)C(=O)N1 (stereo partly drawn) [Compound 188, (3R)-N-[3-(5-{4-[(1R,3R,5S)-3-({4-[2-(2,6-dioxopiperidin-3-yl)-1-oxo-2,3-dihydro-1H-isoindol-5-yl]piperidin-1-yl}methyl)-8-azabicyclo[3.2.1]octan-8-yl]phenyl}-1H-pyrrolo[2,3-b]pyridine-3-carbonyl)-2,4-difluorophenyl]-3-fluoropyrrolidine-1-sulfonamide] | 1 to 10 nM | 5 to 50 nM | > 70% | 35 to 70%
O=C1CCC(N2Cc3cc(CCCCN4CCN(c5ccc(-c6cnc7[nH]cc(C(=O)c8c(F)ccc(NS(=O)(=O)N9CC[C@@H](F)C9)c8F)c7c6)cc5)CC4)ccc3C2=O)C(=O)N1 (stereo partly drawn) [Compound 325, (3R)-N-(3-{5-[4-(4-{4-[2-(2,6-dioxopiperidin-3-yl)-1-oxo-2,3-dihydro-1H-isoindol-5-yl]butyl}piperazin-1-yl)phenyl]-1H-pyrrolo[2,3-b]pyridine-3-carbonyl}-2,4-difluorophenyl)-3-fluoropyrrolidine-1-sulfonamide] | 1 to 10 nM | 5 to 50 nM | > 70% | 35 to 70%
O=C1CC[C@H](N2Cc3cc(OC[C@H](O)CN4CC5(C4)CN(c4ccc(-c6cnc7[nH]cc(C(=O)c8c(F)ccc(NS(=O)(=O)N9CC[C@@H](F)C9)c8F)c7c6)cc4)C5)ccc3C2=O)C(=O)N1 [Compound 123, (3R)—N-[3-[5-[4-[6-[(2R)-3-[2-[(3S)-2,6-dioxo-3-piperidyl]-1-oxo-isoindolin-5-yl]oxy-2-hydroxy-propyl]-2,6-diazaspiro[3.3]heptan-2-yl]phenyl]-1H-pyrrolo[2,3-b]pyridine-3-carbonyl]-2,4-difluoro-phenyl]-3-fluoro-pyrrolidine-1-sulfonamide] | 1 to 10 nM | 5 to 50 nM | > 70% | 35 to 70%
COc1cc(N2CCC(CN3CCN(c4ccc(-c5cnc6[nH]cc(C(=O)c7c(F)ccc(NS(=O)(=O)N8CC[C@@H](F)C8)c7F)c6c5)cc4)CC3)CC2)ccc1C(=O)N[C@H]1CCC(=O)NC1=O [Compound 357, 4-(4-{[4-(4-{3-[2,6-difluoro-3-({[(3R)-3-fluoropyrrolidin-1-yl]sulfonyl}amino)benzoyl]-1H-pyrrolo[2,3-b]pyridin-5-yl}phenyl)piperazin-1-yl]methyl}piperidin-1-yl)-N-[(3S)-2,6-dioxopiperidin-3-yl]-2-methoxybenzamide] | 1 to 10 nM | 5 to 50 nM | > 70% | 35 to 70%
O=C1CCC(N2Cc3cc(O[C@H]4C[C@@]5(COCCN5CC5CCN(c6ccc(-c7cnc8[nH]cc(C(=O)c9c(F)ccc(NS(=O)(=O)N%10CC[C@@H](F)C%10)c9F)c8c7)cc6)CC5)C4)ccc3C2=O)C(=O)N1 (stereo partly drawn) [Compound 13, (3R)-N-(2,4-difluoro-3-{5-[4-(4-{[(2r,4r)-2-{[2-(2,6-dioxopiperidin-3-yl)-1-oxo-2,3-dihydro-1H-isoindol-5-yl]oxy}-8-oxa-5-azaspiro[3.5]nonan-5-yl]methyl}piperidin-1-yl)phenyl]-1H-pyrrolo[2,3-b]pyridin-3-carbonyl}phenyl)-3-fluoropyrrolidine-1-sulfonamide] | 10 to 30 nM | > 500 nM | 35 to 70% | > 70%
COc1cc(N2CCC(CN3CC4(C3)CN(c3ccc(-c5cnc6[nH]cc(C(=O)c7c(F)ccc(NS(=O)(=O)N8CC[C@@H](F)C8)c7F)c6c5)cc3)C4)CC2)cc2c1C(=O)N([C@H]1CCC(=O)NC1=O)C2 [Compound 226, (3R)-N-{3-[5-(4-{6-[(1-{2-[(3S)-2,6-dioxopiperidin-3-yl]-7-methoxy-1-oxo-2,3-dihydro-1H-isoindol-5-yl}piperidin-4-yl)methyl]-2,6-diazaspiro[3.3]heptan-2-yl}phenyl)-1H-pyrrolo[2,3-b]pyridine-3-carbonyl]-2,4-difluorophenyl}-3-fluoropyrrolidine-1-sulfonamide] | 1 to 10 nM | 5 to 50 nM | > 70% | < 35%
O=C1CC[C@@H](NC(=O)N2CCCc3c(C4CCN(CC5CCN(c6ccc(-c7cnc8[nH]cc(C(=O)c9c(F)ccc(NS(=O)(=O)N%10CC[C@@H](F)C%10)c9F)c8c7)cc6)CC5)CC4)ccnc32)C(=O)N1 [Compound 367, 5-(1-{[1-(4-{3-[2,6-difluoro-3-({[(3R)-3-fluoropyrrolidin-1-yl]sulfonyl}amino)benzoyl]-1H-pyrrolo[2,3-b]pyridin-5-yl}phenyl)piperidin-4-yl]methyl}piperidin-4-yl)-N-[(3R)-2,6-dioxopiperidin-3-yl]-1,2,3,4-tetrahydro-1,8-naphthyridine-1-carboxamide] | 1 to 10 nM | > 500 nM | < 35% | –
O=C1CC[C@H](N2Cc3cc(C4CCN(CC5CCN(c6ccc(-c7cnc8[nH]cc(C(=O)c9c(F)ccc(NS(=O)(=O)N%10CC[C@@H](F)C%10)c9C(F)(F)F)c8c7)cc6)CC5)CC4)ccc3C2=O)C(=O)N1 [Compound 272, (3R)-N-{3-[5-(4-{4-[(4-{2-[(3S)-2,6-dioxopiperidin-3-yl]-1-oxo-2,3-dihydro-1H-isoindol-5-yl}piperidin-1-yl)methyl]piperidin-1-yl}phenyl)-1H-pyrrolo [2,3-b]pyridine-3-carbonyl]-4-fluoro-2-(trifluoromethyl)phenyl}-3-fluoropyrrolidine-1-sulfonamide] | 1 to 10 nM | 50 to 500 nM | 35 to 70% | 35 to 70%

The next lines start with the values.

DC50 (BRAF G466V) | DC50 (BRAF V600E) | Dmax (BRAF G466V) | Dmax (BRAF V600E) | SMILES
1 to 10 nM | 5 to 50 nM | 35 to 70% | 35 to 70% | O=C1CC[C@H](NC(=O)c2cc(C3CCN(CC4CCN(c5ccc(-c6cnc7[nH]cc(C(=O)c8c(F)ccc(NS(=O)(=O)N9CC[C@@H](F)C9)c8F)c7c6)cc5)CC4)CC3)ccc2F)C(=O)N1 [Compound 196, 5-(1-{[1-(4-{3-[2,6-difluoro-3-({[(3R)-3-fluoropyrrolidin-1-yl]sulfonyl}amino)benzoyl]-1H-pyrrolo[2,3-b]pyridin-5-yl}phenyl)piperidin-4-yl]methyl}piperidin-4-yl)-N-[(3S)-2,6-dioxopiperidin-3-yl]-2-fluorobenzamide]
< 1 nM | 5 to 50 nM | 35 to 70% | 35 to 70% | COc1cc(OCCN2CCN(CCOc3ccc(-c4cnc5[nH]cc(C(=O)c6c(F)ccc(NS(=O)(=O)N7CC[C@@H](F)C7)c6F)c5c4)cc3)CC2)cc2c1C(=O)N([C@H]1CCC(=O)NC1=O)C2 [Compound 44, (3R)-N-(3-{5-[4-(2-{4-[2-({2-[(3S)-2,6-dioxopiperidin-3-yl]-7-methoxy-1-oxo-2,3-dihydro-1H-isoindol-5-yl}oxy)ethyl]piperazin-1-yl}ethoxy)phenyl]-1H-pyrrolo[2,3-b]pyridine-3-carbonyl}-2,4-difluorophenyl)-3-fluoropyrrolidine-1-sulfonamide]
1 to 10 nM | 5 to 50 nM | > 70% | 35 to 70% | O=C1CCC(N2Cc3cc(N4CCC(CN5CC(C6CN(c7ccc(-c8cnc9[nH]cc(C(=O)c%10c(F)ccc(NS(=O)(=O)N%11CC[C@@H](F)C%11)c%10F)c9c8)cc7)C6)C5)CC4)ccc3C2=O)C(=O)N1 (stereo partly drawn) [Compound 330, (3R)-N-[3-(5-{4-[1′-({1-[2-(2,6-dioxopiperidin-3-yl)-1-oxo-2,3-dihydro-1H-isoindol-5-yl]piperidin-4-yl}methyl)-[3,3′-biazetidin]-1-yl]phenyl}-1H-pyrrolo[2,3-b]pyridine-3-carbonyl)-2,4-difluorophenyl]-3-fluoropyrrolidine-1-sulfonamide]
1 to 10 nM | 5 to 50 nM | 35 to 70% | 35 to 70% | O=C1CCC(N2Cc3cc(OCCCCN4CCN(c5ccc(-c6cnc7[nH]cc(C(=O)c8c(F)ccc(NS(=O)(=O)N9CCC(F)(F)C9)c8F)c7c6)cc5)CC4)ccc3C2=O)C(=O)N1 (centres unmarked) [Compound 251, N-[3-(5-{4-[4-(4-{[2-(2,6-dioxopiperidin-3-yl)-1-oxo-2,3-dihydro-1H-isoindol-5-yl]oxy}butyl)piperazin-1-yl]phenyl}-1H-pyrrolo[2,3-b]pyridine-3-carbonyl)-2,4-difluorophenyl]-3,3-difluoropyrrolidine-1-sulfonamide]
1 to 10 nM | 5 to 50 nM | > 70% | 35 to 70% | O=C1CCC(N2Cc3cc(N4CC(CN5CCC(c6ccc(-c7cnc8[nH]cc(C(=O)c9c(F)ccc(NS(=O)(=O)N%10CC[C@@H](F)C%10)c9F)c8c7)cc6)CC5)C4)ccc3C2=O)C(=O)N1 (stereo partly drawn) [Compound 7, (3R)-N-[3-(5-{4-[1-({1-[2-(2,6-dioxopiperidin-3-yl)-1-oxo-2,3-dihydro-1H-isoindol-5-yl]azetidin-3-yl}methyl)piperidin-4-yl]phenyl}-1H-pyrrolo[2,3-b]pyridine-3-carbonyl)-2,4-difluorophenyl]-3-fluoropyrrolidine-1-sulfonamide]
